From PMC9569420 (Communications Biology, 2022)

Columns and labels:
ERBB2/HER2 = target: T1, ERBB2/HER2 (Homo sapiens, UniProt P04626); experiment: biochemical; conditions: read-out: % Enzyme Activity (relative to DMSO controls)
T1 construct: purchased Reaction Biology Corporation

PIM1 = target: T2, PIM1 (Homo sapiens, UniProt P11309); experiment: HotSpot kinase assay; type: biochemical; conditions: read-out: % Enzyme Activity (relative to DMSO controls)
T2 construct: purchased Reaction Biology Corporation
T2 sequence (P11309 whole entry): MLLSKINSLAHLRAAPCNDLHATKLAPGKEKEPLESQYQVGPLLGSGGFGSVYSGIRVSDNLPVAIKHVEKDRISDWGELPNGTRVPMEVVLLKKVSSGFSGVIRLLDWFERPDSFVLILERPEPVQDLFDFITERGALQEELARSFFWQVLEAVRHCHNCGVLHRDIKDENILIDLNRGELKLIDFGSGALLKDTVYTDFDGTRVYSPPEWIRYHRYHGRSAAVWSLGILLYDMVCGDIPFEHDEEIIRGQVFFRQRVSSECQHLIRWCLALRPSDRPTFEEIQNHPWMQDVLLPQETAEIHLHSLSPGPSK

ALK6/BMPR1B = target: T3, ALK6/BMPR1B (Homo sapiens, UniProt O00238); experiment: HotSpot kinase assay; type: biochemical; conditions: read-out: % Enzyme Activity (relative to DMSO controls)
T3 construct: purchased Reaction Biology Corporation

CAMK1g = target: T4, CAMK1g (Homo sapiens, UniProt Q96NX5); experiment: HotSpot kinase assay; type: biochemical; conditions: read-out: % Enzyme Activity (relative to DMSO controls)
T4 construct: purchased Reaction Biology Corporation

GRK1 = target: T5, GRK1 (Homo sapiens, UniProt Q15835); experiment: HotSpot kinase assay; type: biochemical; conditions: read-out: % Enzyme Activity (relative to DMSO controls)
T5 construct: purchased Reaction Biology Corporation

CDK2/CYCLIN E = target: T6, CDK2/CYCLIN E (Homo sapiens, UniProt P24941); experiment: HotSpot kinase assay; type: biochemical; conditions: read-out: % Enzyme Activity (relative to DMSO controls)
T6 construct: purchased Reaction Biology Corporation

DMPK = target: T7, DMPK (Homo sapiens, UniProt Q09013); experiment: HotSpot kinase assay; type: biochemical; conditions: read-out: % Enzyme Activity (relative to DMSO controls)
T7 construct: purchased Reaction Biology Corporation

STK33 = target: T8, STK33 (Homo sapiens, UniProt Q9BYT3); experiment: HotSpot kinase assay; type: biochemical; conditions: read-out: % Enzyme Activity (relative to DMSO controls)
T8 construct: purchased Reaction Biology Corporation

AMPK(A2/B2/G3) = target: T9, AMPK(A2/B2/G3) (Homo sapiens, UniProt P54646); experiment: HotSpot kinase assay; type: biochemical; conditions: 10µM; read-out: % Enzyme Activity (relative to DMSO controls)
T9 construct: purchased Reaction Biology Corporation
T9 sequence (P54646 whole entry): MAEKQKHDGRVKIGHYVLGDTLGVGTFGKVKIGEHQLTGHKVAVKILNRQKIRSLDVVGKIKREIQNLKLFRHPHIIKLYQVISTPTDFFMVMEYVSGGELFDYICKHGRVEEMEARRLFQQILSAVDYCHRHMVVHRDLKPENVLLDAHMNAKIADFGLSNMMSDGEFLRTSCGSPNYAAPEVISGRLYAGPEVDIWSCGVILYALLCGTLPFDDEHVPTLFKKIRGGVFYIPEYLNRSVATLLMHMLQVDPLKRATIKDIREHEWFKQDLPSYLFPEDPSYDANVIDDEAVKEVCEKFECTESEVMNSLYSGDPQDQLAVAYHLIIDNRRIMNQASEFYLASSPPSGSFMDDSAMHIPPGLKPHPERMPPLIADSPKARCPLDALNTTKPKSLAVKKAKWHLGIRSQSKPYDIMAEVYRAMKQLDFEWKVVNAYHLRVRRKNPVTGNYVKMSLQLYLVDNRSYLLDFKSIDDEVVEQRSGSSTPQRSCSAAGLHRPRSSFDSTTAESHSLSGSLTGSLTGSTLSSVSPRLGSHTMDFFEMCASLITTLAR
T9 sequence (O43741 whole entry partner): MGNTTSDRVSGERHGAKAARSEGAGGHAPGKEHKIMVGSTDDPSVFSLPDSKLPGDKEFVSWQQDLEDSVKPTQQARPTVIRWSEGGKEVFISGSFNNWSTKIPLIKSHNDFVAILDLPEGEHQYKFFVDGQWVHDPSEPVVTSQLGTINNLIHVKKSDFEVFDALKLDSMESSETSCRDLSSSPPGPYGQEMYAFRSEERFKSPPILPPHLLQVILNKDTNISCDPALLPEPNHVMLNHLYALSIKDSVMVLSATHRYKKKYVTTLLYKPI
T9 sequence (Q9UGI9 whole entry partner): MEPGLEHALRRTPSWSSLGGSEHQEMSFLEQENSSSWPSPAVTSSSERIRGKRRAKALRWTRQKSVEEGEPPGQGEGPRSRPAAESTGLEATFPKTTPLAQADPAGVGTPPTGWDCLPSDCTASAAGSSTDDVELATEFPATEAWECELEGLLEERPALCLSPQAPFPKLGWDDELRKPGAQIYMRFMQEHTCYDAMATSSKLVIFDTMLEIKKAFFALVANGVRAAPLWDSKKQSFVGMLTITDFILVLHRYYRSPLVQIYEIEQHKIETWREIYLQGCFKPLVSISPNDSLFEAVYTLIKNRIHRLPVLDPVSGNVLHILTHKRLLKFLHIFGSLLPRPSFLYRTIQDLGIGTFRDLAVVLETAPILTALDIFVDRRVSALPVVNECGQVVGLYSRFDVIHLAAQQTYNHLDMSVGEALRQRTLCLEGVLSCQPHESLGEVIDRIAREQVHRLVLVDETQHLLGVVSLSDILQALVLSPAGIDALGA
Protocol: (§1) Kinase activity were performed by Reaction Biology Corporation using the “HotSpot” assay platform modified from the published procedure.

DYRK4 = target: T10, DYRK4 (Homo sapiens, UniProt Q9NR20); experiment: HotSpot kinase assay; type: biochemical; conditions: 10µM; read-out: % Enzyme Activity (relative to DMSO controls)
T10 construct: purchased Reaction Biology Corporation
Protocol: as §1

NEK3 = target: T11, NEK3 (Homo sapiens, UniProt P51956); experiment: HotSpot kinase assay; type: biochemical; conditions: 10µM; read-out: % Enzyme Activity (relative to DMSO controls)
T11 construct: purchased Reaction Biology Corporation
Protocol: as §1

VRK2 = target: T12, VRK2 (Homo sapiens, UniProt Q86Y07); experiment: HotSpot kinase assay; type: biochemical; conditions: 10µM; read-out: % Enzyme Activity (relative to DMSO controls)
T12 construct: purchased Reaction Biology Corporation
T12 sequence (Q86Y07 whole entry): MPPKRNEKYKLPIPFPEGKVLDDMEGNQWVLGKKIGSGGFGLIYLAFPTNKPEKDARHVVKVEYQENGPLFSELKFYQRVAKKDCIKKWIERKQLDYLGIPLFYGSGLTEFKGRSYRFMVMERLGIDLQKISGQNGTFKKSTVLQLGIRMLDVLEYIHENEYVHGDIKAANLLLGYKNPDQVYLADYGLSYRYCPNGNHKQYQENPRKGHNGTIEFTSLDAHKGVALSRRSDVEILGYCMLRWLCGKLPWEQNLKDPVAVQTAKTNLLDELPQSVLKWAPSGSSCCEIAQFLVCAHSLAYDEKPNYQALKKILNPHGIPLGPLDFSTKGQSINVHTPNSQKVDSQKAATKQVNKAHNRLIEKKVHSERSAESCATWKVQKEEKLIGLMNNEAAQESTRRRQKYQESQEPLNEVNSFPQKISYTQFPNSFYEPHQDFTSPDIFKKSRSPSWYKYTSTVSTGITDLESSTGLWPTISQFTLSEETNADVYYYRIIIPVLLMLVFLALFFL
Protocol: as §1

ZAK/MLTK = target: T13, ZAK/MLTK (Homo sapiens, UniProt Q9NYL2); experiment: HotSpot kinase assay; type: biochemical; conditions: 10µM; read-out: % Enzyme Activity (relative to DMSO controls)
T13 construct: purchased Reaction Biology Corporation
Protocol: as §1

AMPK (A2/B1/G3) = target: T14, AMPK (A2/B1/G3) (Homo sapiens, UniProt P54646); experiment: HotSpot kinase assay; type: biochemical; conditions: 10µM; read-out: % Enzyme Activity (relative to DMSO controls)
T14 construct: purchased Reaction Biology Corporation
T14 sequence (P54646 whole entry): as the sequence (P54646 whole entry) above
T14 sequence (Q9Y478 whole entry partner): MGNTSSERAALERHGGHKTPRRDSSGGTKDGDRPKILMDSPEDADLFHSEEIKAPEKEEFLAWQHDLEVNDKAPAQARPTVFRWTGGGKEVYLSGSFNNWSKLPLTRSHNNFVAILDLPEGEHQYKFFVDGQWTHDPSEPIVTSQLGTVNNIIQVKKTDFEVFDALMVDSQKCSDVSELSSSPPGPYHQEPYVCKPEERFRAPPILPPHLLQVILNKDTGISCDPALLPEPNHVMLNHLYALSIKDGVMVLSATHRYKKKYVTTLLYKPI
T14 sequence (Q9UGI9 whole entry partner): as the sequence (Q9UGI9 whole entry partner) above
Protocol: as §1

PDK3/PDHK3 = target: T15, PDK3/PDHK3 (Homo sapiens, UniProt Q15120); experiment: HotSpot kinase assay; type: biochemical; conditions: 10µM; read-out: % Enzyme Activity (relative to DMSO controls)
T15 construct: purchased Reaction Biology Corporation
Protocol: as §1

TGFBR2 = target: T16, TGFBR2 (Homo sapiens, UniProt P37173); experiment: HotSpot kinase assay; type: biochemical; conditions: 10µM; read-out: % Enzyme Activity (relative to DMSO controls)
T16 construct: purchased Reaction Biology Corporation
Protocol: as §1

VRK1 = target: T17, VRK1 (Homo sapiens, UniProt Q99986); experiment: HotSpot kinase assay; type: biochemical; conditions: 10µM; read-out: % Enzyme Activity (relative to DMSO controls)
T17 construct: purchased Reaction Biology Corporation
T17 sequence (Q99986 whole entry): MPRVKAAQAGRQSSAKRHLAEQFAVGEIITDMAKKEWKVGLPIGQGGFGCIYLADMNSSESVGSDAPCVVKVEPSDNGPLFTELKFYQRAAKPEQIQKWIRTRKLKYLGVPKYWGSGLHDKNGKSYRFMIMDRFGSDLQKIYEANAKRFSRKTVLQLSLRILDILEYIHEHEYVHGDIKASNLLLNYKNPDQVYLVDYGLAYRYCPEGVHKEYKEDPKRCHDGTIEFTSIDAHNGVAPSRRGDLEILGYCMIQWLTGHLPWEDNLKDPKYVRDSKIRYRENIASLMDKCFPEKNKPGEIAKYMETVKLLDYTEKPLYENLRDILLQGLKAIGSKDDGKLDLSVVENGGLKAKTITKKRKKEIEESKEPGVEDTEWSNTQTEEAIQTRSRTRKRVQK
Protocol: as §1

TTBK1 = target: T18, TTBK1 (Homo sapiens, UniProt Q5TCY1); experiment: HotSpot kinase assay; type: biochemical; conditions: 10µM; read-out: % Enzyme Activity (relative to DMSO controls)
T18 construct: purchased Reaction Biology Corporation
Protocol: as §1

PDK1/PDHK1 = target: T19, PDK1/PDHK1 (Homo sapiens, UniProt Q15118); experiment: HotSpot kinase assay; type: biochemical; conditions: 10µM; read-out: % Enzyme Activity (relative to DMSO controls)
T19 construct: purchased Reaction Biology Corporation
Protocol: as §1

EIF2AK1 = target: T20, EIF2AK1 (Homo sapiens, UniProt Q9BQI3); experiment: HotSpot kinase assay; type: biochemical; conditions: 10µM; read-out: % Enzyme Activity (relative to DMSO controls)
T20 construct: purchased Reaction Biology Corporation
Protocol: as §1

TRPM7/CHAK1 = target: T21, TRPM7/CHAK1 (Homo sapiens, UniProt Q96QT4); experiment: HotSpot kinase assay; type: biochemical; conditions: 10µM; read-out: % Enzyme Activity (relative to DMSO controls)
T21 construct: purchased Reaction Biology Corporation
Protocol: as §1

AMPK(A1/B2/G1) = target: T22, AMPK(A1/B2/G1) (Homo sapiens, UniProt Q13131); experiment: HotSpot kinase assay; type: biochemical; conditions: 10µM; read-out: % Enzyme Activity (relative to DMSO controls)
T22 construct: purchased Reaction Biology Corporation
Protocol: as §1

AMPK(A2/B2/G1) = target: T23, AMPK(A2/B2/G1) (Homo sapiens, UniProt P54646); experiment: HotSpot kinase assay; type: biochemical; conditions: 10µM; read-out: % Enzyme Activity (relative to DMSO controls)
T23 construct: purchased Reaction Biology Corporation
T23 sequence (P54646 whole entry): as the sequence (P54646 whole entry) above
T23 sequence (O43741 whole entry partner): as the sequence (O43741 whole entry partner) above
T23 sequence (P54619 whole entry partner): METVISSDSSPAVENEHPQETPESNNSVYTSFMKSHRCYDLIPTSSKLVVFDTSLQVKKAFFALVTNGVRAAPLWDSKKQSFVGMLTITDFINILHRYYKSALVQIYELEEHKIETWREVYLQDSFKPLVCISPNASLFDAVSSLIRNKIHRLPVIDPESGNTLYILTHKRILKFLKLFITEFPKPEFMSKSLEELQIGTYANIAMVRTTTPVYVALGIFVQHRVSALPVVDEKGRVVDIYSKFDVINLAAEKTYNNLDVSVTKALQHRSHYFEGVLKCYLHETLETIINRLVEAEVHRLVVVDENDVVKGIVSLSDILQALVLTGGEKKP
Protocol: as §1

NEK7 = target: T24, NEK7 (Homo sapiens, UniProt Q8TDX7); experiment: HotSpot kinase assay; type: biochemical; conditions: 10µM; read-out: % Enzyme Activity (relative to DMSO controls)
T24 construct: purchased Reaction Biology Corporation
Protocol: as §1

LOK/STK10 = target: T25, LOK/STK10 (Homo sapiens, UniProt O94804); experiment: HotSpot kinase assay; type: biochemical; conditions: 10µM; read-out: % Enzyme Activity (relative to DMSO controls)
T25 construct: purchased Reaction Biology Corporation
Protocol: as §1

TTBK2 = target: T26, TTBK2 (Homo sapiens, UniProt Q6IQ55); experiment: HotSpot kinase assay; type: biochemical; conditions: 10µM; read-out: % Enzyme Activity (relative to DMSO controls)
T26 construct: purchased Reaction Biology Corporation
Protocol: as §1

AMPK(A1/B1/G1) = target: T27, AMPK(A1/B1/G1) (Homo sapiens, UniProt Q13131); experiment: HotSpot kinase assay; type: biochemical; conditions: 10µM; read-out: % Enzyme Activity (relative to DMSO controls)
T27 construct: purchased Reaction Biology Corporation
Protocol: as §1

WNK3 = target: T28, WNK3 (Homo sapiens, UniProt Q9BYP7); experiment: HotSpot kinase assay; type: biochemical; conditions: 10µM; read-out: % Enzyme Activity (relative to DMSO controls)
T28 construct: purchased Reaction Biology Corporation
Protocol: as §1

HIPK1 = target: T29, HIPK1 (Homo sapiens, UniProt Q86Z02); experiment: HotSpot kinase assay; type: biochemical; conditions: 10µM; read-out: % Enzyme Activity (relative to DMSO controls)
T29 construct: purchased Reaction Biology Corporation
Protocol: as §1

PDK2/PDHK2 = target: T30, PDK2/PDHK2 (Homo sapiens, UniProt Q15119); experiment: HotSpot kinase assay; type: biochemical; conditions: 10µM; read-out: % Enzyme Activity (relative to DMSO controls)
T30 construct: purchased Reaction Biology Corporation
Protocol: as §1

ERK1 = target: T31, ERK1 (Homo sapiens, UniProt P27361); experiment: HotSpot kinase assay; type: biochemical; conditions: 10µM; read-out: % Enzyme Activity (relative to DMSO controls)
T31 construct: purchased Reaction Biology Corporation
Protocol: as §1

ARAF = target: T32, ARAF (Homo sapiens, UniProt P10398); experiment: HotSpot kinase assay; type: biochemical; conditions: 10µM; read-out: % Enzyme Activity (relative to DMSO controls)
T32 construct: purchased Reaction Biology Corporation
Protocol: as §1

COT1/MAP3K8 = target: T33, COT1/MAP3K8 (Homo sapiens, UniProt P41279); experiment: HotSpot kinase assay; type: biochemical; conditions: 10µM; read-out: % Enzyme Activity (relative to DMSO controls)
T33 construct: purchased Reaction Biology Corporation
Protocol: as §1

NEK6 = target: T34, NEK6 (Homo sapiens, UniProt Q9HC98); experiment: HotSpot kinase assay; type: biochemical; conditions: 10µM; read-out: % Enzyme Activity (relative to DMSO controls)
T34 construct: purchased Reaction Biology Corporation
Protocol: as §1

WEE1 = target: T35, WEE1 (Homo sapiens, UniProt P30291); experiment: HotSpot kinase assay; type: biochemical; conditions: read-out: % Enzyme Activity (relative to DMSO controls)
T35 construct: purchased Reaction Biology Corporation
Protocol: as §1

AMPK(A2/B1/G1) = target: T36, AMPK(A2/B1/G1) (Homo sapiens, UniProt P54646); experiment: HotSpot kinase assay; type: biochemical; conditions: 10µM; read-out: % Enzyme Activity (relative to DMSO controls)
T36 construct: purchased Reaction Biology Corporation
T36 sequence (P54646 whole entry): as the sequence (P54646 whole entry) above
T36 sequence (Q9Y478 whole entry partner): as the sequence (Q9Y478 whole entry partner) above
T36 sequence (P54619 whole entry partner): as the sequence (P54619 whole entry partner) above
Protocol: as §1

AMPK(A2/B2/G2) = target: T37, AMPK(A2/B2/G2) (Homo sapiens, UniProt P54646); experiment: HotSpot kinase assay; type: biochemical; conditions: 10µM; read-out: % Enzyme Activity (relative to DMSO controls)
T37 construct: purchased Reaction Biology Corporation
T37 sequence (P54646 whole entry): as the sequence (P54646 whole entry) above
T37 sequence (O43741 whole entry partner): as the sequence (O43741 whole entry partner) above
T37 sequence (Q9UGJ0 whole entry partner): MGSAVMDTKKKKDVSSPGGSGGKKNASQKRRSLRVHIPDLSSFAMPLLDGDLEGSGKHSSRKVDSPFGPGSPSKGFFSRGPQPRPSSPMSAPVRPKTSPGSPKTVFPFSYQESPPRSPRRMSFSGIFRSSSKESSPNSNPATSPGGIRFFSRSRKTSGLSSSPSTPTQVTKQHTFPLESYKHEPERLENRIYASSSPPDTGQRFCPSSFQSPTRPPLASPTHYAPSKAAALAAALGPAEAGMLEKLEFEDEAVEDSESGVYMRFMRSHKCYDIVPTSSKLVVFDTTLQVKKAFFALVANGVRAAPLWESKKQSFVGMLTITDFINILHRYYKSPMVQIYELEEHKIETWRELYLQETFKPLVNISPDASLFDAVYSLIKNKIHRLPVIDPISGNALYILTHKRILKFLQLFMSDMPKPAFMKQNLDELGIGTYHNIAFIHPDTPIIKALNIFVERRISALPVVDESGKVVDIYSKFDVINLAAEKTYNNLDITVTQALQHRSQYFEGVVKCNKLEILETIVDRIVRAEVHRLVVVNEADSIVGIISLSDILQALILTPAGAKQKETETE
Protocol: as §1

AMPK (A1/B2/G3) = target: T38, AMPK (A1/B2/G3) (Homo sapiens, UniProt Q13131); experiment: HotSpot kinase assay; type: biochemical; conditions: 10µM; read-out: % Enzyme Activity (relative to DMSO controls)
T38 construct: purchased Reaction Biology Corporation
Protocol: as §1

CK2a = target: T39, CK2a (Homo sapiens, UniProt P68400); experiment: HotSpot kinase assay; type: biochemical; conditions: 10µM; read-out: % Enzyme Activity (relative to DMSO controls)
T39 construct: purchased Reaction Biology Corporation
T39 sequence (P68400 whole entry): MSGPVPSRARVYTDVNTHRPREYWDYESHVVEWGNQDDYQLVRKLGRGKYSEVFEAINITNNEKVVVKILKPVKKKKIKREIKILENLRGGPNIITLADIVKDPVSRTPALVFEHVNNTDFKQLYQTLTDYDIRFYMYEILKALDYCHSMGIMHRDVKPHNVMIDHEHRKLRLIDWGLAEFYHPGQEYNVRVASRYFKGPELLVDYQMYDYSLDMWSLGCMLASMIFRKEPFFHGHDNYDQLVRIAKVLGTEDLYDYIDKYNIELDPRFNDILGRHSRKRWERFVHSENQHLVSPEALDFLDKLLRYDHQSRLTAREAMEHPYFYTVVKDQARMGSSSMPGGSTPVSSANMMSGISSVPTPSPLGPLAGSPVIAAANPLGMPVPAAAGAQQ
Protocol: as §1

PDK4/PDHK4 = target: T40, PDK4/PDHK4 (Homo sapiens, UniProt Q16654); experiment: HotSpot kinase assay; type: biochemical; conditions: 10µM; read-out: % Enzyme Activity (relative to DMSO controls)
T40 construct: purchased Reaction Biology Corporation
T40 sequence (Q16654 whole entry): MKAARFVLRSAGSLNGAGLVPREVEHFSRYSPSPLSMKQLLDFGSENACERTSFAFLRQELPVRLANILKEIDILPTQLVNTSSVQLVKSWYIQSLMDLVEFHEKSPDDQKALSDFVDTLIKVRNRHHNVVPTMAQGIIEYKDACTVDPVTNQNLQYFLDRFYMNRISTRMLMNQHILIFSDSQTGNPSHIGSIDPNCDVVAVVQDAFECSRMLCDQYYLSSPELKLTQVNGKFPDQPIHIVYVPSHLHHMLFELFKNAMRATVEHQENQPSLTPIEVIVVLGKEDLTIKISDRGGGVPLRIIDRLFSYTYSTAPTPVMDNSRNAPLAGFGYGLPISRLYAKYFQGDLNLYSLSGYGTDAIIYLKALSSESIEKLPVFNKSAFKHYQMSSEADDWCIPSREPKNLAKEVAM
Protocol: as §1

HPK1/MAP4K1 = target: T41, HPK1/MAP4K1 (Homo sapiens, UniProt Q92918); experiment: HotSpot kinase assay; type: biochemical; conditions: 10µM; read-out: % Enzyme Activity (relative to DMSO controls)
T41 construct: purchased Reaction Biology Corporation
Protocol: as §1

AMPK(A1/B1/G2) = target: T42, AMPK(A1/B1/G2) (Homo sapiens, UniProt Q13131); experiment: HotSpot kinase assay; type: biochemical; conditions: 10µM; read-out: % Enzyme Activity (relative to DMSO controls)
T42 construct: purchased Reaction Biology Corporation
Protocol: as §1

`CO[C@@H]1[C@H](N(C)C(=O)CCC(=O)NCc2cn(CCCS(=O)(=O)O)nn2)C[C@H]2O[C@]1(C)n1c3ccccc3c3c4c(c5c6ccccc6n2c5c31)C(=O)NC4` [CIMSS] was tested, and the remaining activity at 10 µM (ERBB2/HER2) was 35.9%, the remaining activity at 10 µM (PIM1) was 0.88% and the remaining activity at 10 µM (ALK6/BMPR1B) was 88.3%. It also gave a remaining activity at 10 µM (CAMK1g) of 8.97%, a remaining activity at 10 µM (GRK1) of 4.7% and a remaining activity at 10 µM (CDK2/CYCLIN E) of 7.89%. The remaining activity at 10 µM (DMPK) was 76.5%, the remaining activity at 10 µM (STK33) was 9.17% and the remaining activity at 10 µM (AMPK(A2/B2/G3)) was 0.63%. It also gave a remaining activity at 10 µM (DYRK4) of 92%, a remaining activity at 10 µM (NEK3) of 87.3% and a remaining activity at 10 µM (VRK2) of 81.8%. The remaining activity at 10 µM (ZAK/MLTK) was 82.7%, the remaining activity at 10 µM (AMPK (A2/B1/G3)) was 0.67% and the remaining activity at 10 µM (PDK3/PDHK3) was 96.4%. The remaining activity at 10 µM (TGFBR2) was 111%, the remaining activity at 10 µM (VRK1) was 81.6% and the remaining activity at 10 µM (TTBK1) was 67.7%. For the same compound, the remaining activity at 10 µM (PDK1/PDHK1) was 97.2%, the remaining activity at 10 µM (EIF2AK1) was 82.5% and the remaining activity at 10 µM (TRPM7/CHAK1) was 91.6%. The remaining activity at 10 µM (AMPK(A1/B2/G1)) was 0.73%, the remaining activity at 10 µM (AMPK(A2/B2/G1)) was 0.34% and the remaining activity at 10 µM (NEK7) was 88.5%. The remaining activity at 10 µM (LOK/STK10) was 2.86%, the remaining activity at 10 µM (TTBK2) was 95.1% and the remaining activity at 10 µM (AMPK(A1/B1/G1)) was 1.14%. The remaining activity at 10 µM (WNK3) was 66.4%, the remaining activity at 10 µM (HIPK1) was 36.4% and the remaining activity at 10 µM (PDK2/PDHK2) was 95.5%. The remaining activity at 10 µM (ERK1) was 91.8%, the remaining activity at 10 µM (ARAF) was 154% and the remaining activity at 10 µM (COT1/MAP3K8) was 110%. For the same compound, the remaining activity at 10 µM (NEK6) was 89%, the remaining activity at 10 µM (WEE1) was 44.2% and the remaining activity at 10 µM (AMPK(A2/B1/G1)) was 0.76%. It also gave a remaining activity at 10 µM (AMPK(A2/B2/G2)) of 0.73%, a remaining activity at 10 µM (AMPK (A1/B2/G3)) of 1.13% and a remaining activity at 10 µM (CK2a) of 71.4%. It also gave a remaining activity at 10 µM (PDK4/PDHK4) of 93.2%, a remaining activity at 10 µM (HPK1/MAP4K1) of 2.66% and a remaining activity at 10 µM (AMPK(A1/B1/G2)) of 1.46%.
